Marks after values point to notes of the source that are not given here.
Tested on: Slc:Wistar male rats given scopolamine
Test: Passive avoidance reaction (shuttle type avoidance test box) in scopolamine-treated rats
Type: in vivo, rat
Details: for latent time compared with the control group: Example 2, scopolamine 0.25 or 0.5 mg/kg, drug treatment from the 2nd day
Protocol: 6-Week old Slc:Wistar male rats were used for the experiment after preliminary breeding including one week of quarantine. The animals were individually bred under an environment at a temperature of 22±3° C. and a humidity of 50±20% with illumination of 12 hours (8:00 to 20:00) for both the preliminary breeding and experimental periods, and the animals were given pellets (Labo MR Stock, Nihon Nosan Kogyo K.K.) and tap water ad libitum. The animals were divided into groups according to body weights as an index (10 animals/group), and trials for acquisition and reproduction of memory were performed. Each trial was performed by using a shuttle type avoidance test box. […] Each animal was put into the light room, time until the animal moved to the dark room (latent time) was measured up to 5 minutes, and when the rat moved to the darkroom, the partition was shut, and shock was given by electrification.
Each animal was subcutaneously given 0.5 mg/kg of scopolamine 30 minutes before the trial, and this procedure was continued for seven days. Scopolamine, which is an anticholinergic agent, is known to block the muscarinic acetylcholine receptor in the striate body and inhibit acquisition of new memory (Folia Pharmacol. Jpn., 97, pp. 351-359, 1991). From the third day, the test substance (Am80: 4-[(5,6,7,8-tetrahydro-5,5,8,8-tetramethyl-2-naphthalenyl)carbamoyl]benzoic acid, 10 mg/kg/day) was orally given 3 hours before the scopolamine treatment. With numerical values obtained, average and standard deviation were calculated for each group, and a homoscedasticity test was performed by F-test between the control group (no Am80 treatment) and Am80-treated group. When homoscedasticity was observed, presence or absence of significant difference was determined by Student's t-test, and when non-homoscedasticity was observed, presence or absence of significant difference was determined by Aspin-Welch's t-test.
A test was performed in the same manner as that of Example 1, except that scopolamine was given at a dose of 0.25 mg/kg or 0.5 mg/kg, and 2 mg/kg, 5 mg/kg or 12.5 mg/kg of Am80, 30 mg/kg of Tac101 (4-[(3,5-bis-trimethylsilylphenyl)-carboxamido]benzoic acid), and 10 mg/kg of HX630 (4-[2,3-(2,5-dimethyl-2,5-hexano)dibenzo[b,f][1,4]thiazepin-11-yl]benzoic acid) were given. Combinatory use of Am80 (5 mg/kg) and HX630 (10 mg/kg) was also similarly examined. Drug treatment was performed from the 2nd day.
In the same manner as that of Example 2, scopolamine was given at a dose of 0.25 mg/kg, and 10 mg/kg of 4-[5-(4,7-dimethylbenzofuran-2-yl)pyrrol-2-yl]benzoic acid (IT-K-1001) was orally given.

CC1(C)CCC(C)(C)c2cc(NC(=O)c3ccc(C(=O)O)cc3)ccc21 [Am80, 4-[(5,6,7,8-tetrahydro-5,5,8,8-tetramethyl-2-naphthalenyl)carbamoyl]benzoic acid]
Reaction latency (Am80 2 mg/kg/day from 2nd day, SCP 0.5 mg/kg/day, lapsed day 1): 14 s
Reaction latency (Am80 2 mg/kg/day from 2nd day, SCP 0.5 mg/kg/day, lapsed day 2): 9 s
Reaction latency (Am80 2 mg/kg/day from 2nd day, SCP 0.5 mg/kg/day, lapsed day 3): 23 s
Reaction latency (Am80 2 mg/kg/day from 2nd day, SCP 0.5 mg/kg/day, lapsed day 4): 24 s
Reaction latency (Am80 2 mg/kg/day from 2nd day, SCP 0.5 mg/kg/day, lapsed day 5): 38 s
Reaction latency (Am80 5 mg/kg/day from 2nd day, SCP 0.25 mg/kg/day, lapsed day 1): 14 s
Reaction latency (Am80 5 mg/kg/day from 2nd day, SCP 0.25 mg/kg/day, lapsed day 2): 15 s
Reaction latency (Am80 5 mg/kg/day from 2nd day, SCP 0.25 mg/kg/day, lapsed day 3): 53 s
Reaction latency (Am80 5 mg/kg/day from 2nd day, SCP 0.25 mg/kg/day, lapsed day 4): 80 s
Reaction latency (Am80 5 mg/kg/day from 2nd day, SCP 0.25 mg/kg/day, lapsed day 5): 155 s
Reaction latency (Am80 5 mg/kg/day from 2nd day, SCP 0.5 mg/kg/day, lapsed day 1): 19 s
Reaction latency (Am80 5 mg/kg/day from 2nd day, SCP 0.5 mg/kg/day, lapsed day 2): 18 s
Reaction latency (Am80 5 mg/kg/day from 2nd day, SCP 0.5 mg/kg/day, lapsed day 3): 38 s
Reaction latency (Am80 5 mg/kg/day from 2nd day, SCP 0.5 mg/kg/day, lapsed day 4): 52 s
Reaction latency (Am80 5 mg/kg/day from 2nd day, SCP 0.5 mg/kg/day, lapsed day 5): 71 s
Reaction latency (Am80 10 mg/kg/day oral from 3rd day, scopolamine 0.5 mg/kg s.c., lapsed day 1 (before treatment)): 15 s
Reaction latency (Am80 10 mg/kg/day oral from 3rd day, scopolamine 0.5 mg/kg s.c., lapsed day 2 (before treatment)): 14 s
Reaction latency (Am80 10 mg/kg/day oral from 3rd day, scopolamine 0.5 mg/kg s.c., lapsed day 3): 26 s
Reaction latency (Am80 10 mg/kg/day oral from 3rd day, scopolamine 0.5 mg/kg s.c., lapsed day 4): 88 s
Reaction latency (second) (Am80 10 mg/kg/day oral from 3rd day, scopolamine 0.5 mg/kg s.c., lapsed day 5): 149** second
Reaction latency (second) (Am80 10 mg/kg/day oral from 3rd day, scopolamine 0.5 mg/kg s.c., lapsed day 6): 163** second
Reaction latency (second) (Am80 10 mg/kg/day oral from 3rd day, scopolamine 0.5 mg/kg s.c., lapsed day 7): 162** second
Reaction latency (Am80 12.5 mg/kg/day from 2nd day, SCP 0.5 mg/kg/day, lapsed day 1): 15 s
Reaction latency (Am80 12.5 mg/kg/day from 2nd day, SCP 0.5 mg/kg/day, lapsed day 2): 24 s
Reaction latency (Am80 12.5 mg/kg/day from 2nd day, SCP 0.5 mg/kg/day, lapsed day 3): 43 s
Reaction latency (Am80 12.5 mg/kg/day from 2nd day, SCP 0.5 mg/kg/day, lapsed day 4): 74 s
Reaction latency (Am80 12.5 mg/kg/day from 2nd day, SCP 0.5 mg/kg/day, lapsed day 5): 133 s
latent time, course from the start of the treatment (Example 1, Am80 10 mg/kg/day oral, scopolamine 0.5 mg/kg s.c., significant differences vs control from the 5th day): gradually extended
latent time compared with the control group: gradually extended

CC1(C)CCC(C)(C)c2cc3c(cc21)Sc1ccccc1N=C3c1ccc(C(=O)O)cc1 [HX630, 4-[2,3-(2,5-dimethyl-2,5-hexano)dibenzo[b,f][1,4]thiazepin-11-yl]benzoic acid]
latent time compared with the control group: gradually extended
Reaction latency (HX630 10 mg/kg/day from 2nd day, SCP 0.5 mg/kg/day, lapsed day 1): 18 s
Reaction latency (HX630 10 mg/kg/day from 2nd day, SCP 0.5 mg/kg/day, lapsed day 2): 21 s
Reaction latency (HX630 10 mg/kg/day from 2nd day, SCP 0.5 mg/kg/day, lapsed day 3): 30 s
Reaction latency (HX630 10 mg/kg/day from 2nd day, SCP 0.5 mg/kg/day, lapsed day 4): 33 s
Reaction latency (HX630 10 mg/kg/day from 2nd day, SCP 0.5 mg/kg/day, lapsed day 5): 51 s

Cc1ccc(C)c2oc(-c3ccc(-c4ccc(C(=O)O)cc4)[nH]3)cc12 [IT-K-1001, 4-[5-(4,7-dimethylbenzofuran-2-yl)pyrrol-2-yl]benzoic acid]
effect on the action of scopolamine (reaction latency) (Example 3, 10 mg/kg oral, scopolamine 0.25 mg/kg): markedly inhibited the effect of scopolamine
Reaction latency (IT-K-1001 10 mg/kg/day oral, SCP 0.25 mg/kg/day, lapsed day 1): 22 s
Reaction latency (IT-K-1001 10 mg/kg/day oral, SCP 0.25 mg/kg/day, lapsed day 2): 11 s
Reaction latency (IT-K-1001 10 mg/kg/day oral, SCP 0.25 mg/kg/day, lapsed day 3): 106 s
Reaction latency (IT-K-1001 10 mg/kg/day oral, SCP 0.25 mg/kg/day, lapsed day 4): 115 s
Reaction latency (IT-K-1001 10 mg/kg/day oral, SCP 0.25 mg/kg/day, lapsed day 5): 206 s
Reaction latency (IT-K-1001 10 mg/kg/day oral, SCP 0.25 mg/kg/day, lapsed day 6): 291 s
Reaction latency (IT-K-1001 10 mg/kg/day oral, SCP 0.25 mg/kg/day, lapsed day 7): 300 s
Reaction latency (IT-K-1001 10 mg/kg/day oral, SCP 0.25 mg/kg/day, lapsed day 8): 281 s

C[Si](C)(C)c1cc(C(=O)Nc2ccc(C(=O)O)cc2)cc([Si](C)(C)C)c1 [Tac101, 4-[(3,5-bis-trimethylsilylphenyl)-carboxamido]benzoic acid]
latent time compared with the control group: gradually extended
Reaction latency (Tac101 30 mg/kg/day from 2nd day, SCP 0.5 mg/kg/day, lapsed day 1): 19 s
Reaction latency (Tac101 30 mg/kg/day from 2nd day, SCP 0.5 mg/kg/day, lapsed day 2): 21 s
Reaction latency (Tac101 30 mg/kg/day from 2nd day, SCP 0.5 mg/kg/day, lapsed day 3): 47 s
Reaction latency (Tac101 30 mg/kg/day from 2nd day, SCP 0.5 mg/kg/day, lapsed day 4): 69 s
Reaction latency (Tac101 30 mg/kg/day from 2nd day, SCP 0.5 mg/kg/day, lapsed day 5): 107 s
